# Test results reported in patent US20020058266A1, “EF-Tu protein encoded on the plastid DNA of the malaria parasite and protein synthesis inhibitors effective as anti-malarial compounds” (priority 1997, published 2002).
# Key:
# [1] = test system: erythrocytic stages of P.falciparum; assay: Incorporation of radiotracers (3H-hypoxanthine, 14C-isoleucine) by P.falciparum growing in blood cultures; assay type: cell-based, Plasmodium falciparum
# Protocol: Antibiotics—Samples of Mocimycin (kirromycin), Aurodox (N-methylated kirromycin), and Efrotomycin (a glycoside of kirromycin) were used. Aurodox was dissolved in RPMI-Albumax medium (Grande et al 1977), kirromycin was dissolved in RPMI made alkaline by addition of 1M NaOH, and efrotomycin was dissolved in ethanol before dilution in culture medium. Enacyloxin IIA was dissolved in 1% NaHCO3 prior to dilution in RPMI-Albumax medium. The antibiotic GE2270A was dissolved in 100% DMSO before dilution in culture medium. Fusidic acid (Sigma) was dissolved directly in culture medium, and thiostrepton (Sigma) in 100% DMSO before dilution in culture medium. A hemisuccinate form of thiostrepton was prepared as a potassium salt, according to Bodanszky et al 1965. Incorporation of radiotracers by P.falciparum growing in blood cultures in the presence and absence of drugs was carried out as described (Strath et al 1993).
# (§1) Kirromycin: Kirromycin-resistant forms of bacterial EF-Tu are modified at one of seven amino acids along the opposing interfaces of domains I and III (Mesters et al 1994 and Abdulkarim et al 1994) and Pf EF-Tupl has a substitution at one of these sites (A375S-E.coli numbers) that could potentially confer resistance to kirromycin. To test this possibility, kirromycin (Mocimycin), its methylated derivative Aurodox or its disaccharide derivative Efrotomycin were incubated with erythrocytic stages of P.falciparum grown in cultures over a 36 hr period. The incorporation of both ^3H-hypoxanthine and ^14C-isoleucine was inhibited in a dose-dependent fashion, maximum inhibition being achieved at 100 μM kirromycin (FIG. 5). […] Once maximal depression of incorporation had been reached at any particular dose of drug, residual incorporation continued at a uniform rate thereafter. Vital staining with rhodamine 123, a fluorescent dye that concentrates within the mitochondrion (Divo et al. 1985) confirmed the parasiticidal effect, loss of specific mt staining being evident within 2-3 hours (data not shown). […] Blood cultures of P.falciparum were about 10 times more sensitive to the antibiotic than a gram-positive bacterium (Corynebacterium spp) used in parallel bioassays.
# P.falciparum [2] = assay: Vital staining with rhodamine 123 (mitochondrial staining of parasites); assay type: cell-based, Plasmodium falciparum; settings: data not shown
# Protocol: as §1
# P.falciparum [3] = assay: Treatment of parasites, removal of antibiotic by washing and 2 weeks follow-up in vitro; assay type: cell-based, Plasmodium falciparum; settings: 1 mM for 1.5 cell cycles, washing, follow-up for 2 weeks in vitro
# Corynebacterium spp = assay: Parallel bioassay with a gram-positive bacterium; assay type: cell-based; settings: parallel bioassays
# Protocol: as §1
# P.chabaudi = assay: Mice infected with P.chabaudi; assay type: in vivo; settings: intraperitoneally 0.1 ml of 100 mM
# Protocol: The solid line is for aurodox, the dotted line is for mocimycin and the dashed line is for no drug controls. The arrows on the x-axis indicate days on which three 0.1 ml 100 mM ip injections were given.
# On the basis of these findings, preliminary studies were carried out on mice infected with P.chabaudi. In the first experiment, mice were infected and inoculated on the same day intraperitoneally with 0.1 ml of 100 mM Aurodox, a dose calculated to mimic the maximal inhibitory effect observed in vitro. […] In a single experiment.
# [4] = in vivo; cited from earlier work
# [5] = test system: Pf 28S cytosolic rRNA (cytosolic ribosomes); assay: Puromycin shift of polysomes on sucrose gradients, cytosolic rRNA probe; assay type: biochemical, Plasmodium falciparum; settings: 2 mM puromycin; anisomycin 3 mM pre-treatment
# Protocol: (§2) Polysome preparation and puromycin shift—P.falciparum was grown in blood cultures (Trager et al 1976) and ribosomes prepared as described (Sherman et al 1975). Parasitized erythrocytes were lysed for 1 hr on ice in a buffer containing 0.14% Nonidet P-40 (Trade Name), 25 mM KCl, 10 mM MgCl2, 380 mM-sucrose, 6.5 mM β-mercaptoethanol and 50 mM Tris HCl, pH 7.6. The lysate was centrifuged×3 at 10,000 g for 10 min at 4° C. to remove genomic DNA and other cell debris before further centrifugation at 105,000 g for 1 hr in an SW40 rotor (Trade Name, Beckman) at 4° C. The resulting pellet was resuspended in 25 mM KCl, 5 mM MgCl2 and 50 mM Tris HCl (pH 7.6) and homogenized by hand (×50 strokes) with a glass dounce homogenizer (Wheatstone, USA). The suspension was centrifuged at 10,000 g for 10 min at 4° C. and the crude pellet discarded before further centrifugation for 2 hr at 105,000 g in an SW55 rotor (Beckman) at 4° C. The pellet was resuspended in 10 mM Tris HCl, 10 mM MgCl2, 100 mM KCl and homogenized again to give a suspension of ribosomes. […]
# (§3) In an experiment with RNase (Cox 1969), total polysomes were incubated with a range of concentrations of RNase (1-13 ng ml^−1 ribosomes, Boehringer) prior to centrifugation for 30 min at 26° C. […] Hybridization signals were quantitated using a Molecular Dynamics phosphor imager. […]
# [6] = test system: Pf 16S rRNApl (plastid ribosomes); assay: Puromycin shift of polysomes on sucrose gradients, plastid rRNA probe; assay type: biochemical, Plasmodium falciparum; settings: 2 mM puromycin; anisomycin 3 mM pre-treatment
# Protocol: as §2, §3
# [7] = target: T1, heterologously expressed Pf EF-Tupl (Plasmodium falciparum, UniProt Q25820); assay: Band shift in native polyacrylamide gel with expressed Pf EF-Tupl; assay type: binding; settings: 100 μM antibiotic, 100 μM GDP, native 12% polyacrylamide gel
# T1 construct: one clone in JM109 contained the complete insert; GST (cleaved yes); made in house; host or cells: E. coli JM109 (pGEX)
# Protocol: FIG. 13 contains immunoblots showing that binding of antibiotics modifies migration of EF-Tu.GDP in native polyacrylamide gels. Two segments of the same gel show A) heterologously expressed Pf EF-Tupl protein detected with a malaria peptide-specific antibody and B) E.coli EF-Tu detected with a specific antibody (Breidenbach et al 1990). Lanes without antibiotics (1 and 5), lanes with 100 μM antibiotic: GE2270A (2 and 6), enacyloxin lla (3 and 7), kirromycin (4 and 8). Arrows indicate uncomplexed EF-Tu.
# Drug binding—Thiostrepton binding to short rRNA transcripts generated in vitro was assayed according to Ryan et al 1991, as modified by Clough et al 1997. […] Before […], samples were incubated on ice for 15 mins in 50 mM imidazole acetate (pH 7.6), 10 mM NH4Cl, 10 mM MgCl2, 1 mM […] and 100 μM GDP, in a final volume of 20 μl.
# The material tufA gene in pGEX was expressed as an insoluble fusion protein in E.coli JM 109. The protein was detected either with antibodies to the GST tag or with antibodies to a specific peptide sequence in domain I ([…]) not found on E.coli EF-Tu. Washed inclusion bodies were dissolved and refolded by dilution (Lin et al 1991).
# eukaryotic cells = settings: at 100 μM; cited from earlier work
# T1 sequence (Q25820 whole entry): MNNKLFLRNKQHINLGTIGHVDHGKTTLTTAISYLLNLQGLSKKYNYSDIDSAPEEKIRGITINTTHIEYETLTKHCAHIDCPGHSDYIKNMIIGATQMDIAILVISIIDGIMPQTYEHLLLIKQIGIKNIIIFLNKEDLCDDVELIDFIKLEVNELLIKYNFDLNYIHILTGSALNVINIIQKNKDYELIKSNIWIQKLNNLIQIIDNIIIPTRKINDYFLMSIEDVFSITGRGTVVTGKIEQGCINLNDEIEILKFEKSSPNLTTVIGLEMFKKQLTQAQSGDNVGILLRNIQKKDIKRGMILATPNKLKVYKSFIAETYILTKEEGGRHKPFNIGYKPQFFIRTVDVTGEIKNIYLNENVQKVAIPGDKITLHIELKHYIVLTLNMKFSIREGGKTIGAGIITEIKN
compound,measurement,setting,value
"C/C=C\C=C\[C@@H]1O[C@](O)([C@H](CC)C(=O)NC/C=C/C=C(\C)[C@@H](OC)[C@@H](C)[C@@H]2O[C@H](/C=C/C=C/C=C(\C)C(=O)c3c(O)ccn(C)c3=O)[C@H](O)[C@@H]2O)[C@H](O)[C@H](O)C1(C)C [Aurodox, 1-methylmocimycin]","first inhibitory effects on ring stage parasites, time after exposure",[1]; synchronized cultures,as early as five hours
same,"inhibitory effects maximal, time of exposure","[1]; synchronized cultures, ring stage parasites",10 h
same,"loss of specific mt staining evident, time",P.falciparum [2],2 to 3 h
same,parasite death or stasis,P.falciparum [3],parasite death rather than stasis
same,sensitivity of P.falciparum blood cultures relative to Corynebacterium spp,Corynebacterium spp,about 10 times
same,development of the infection in mice,P.chabaudi,lag in development of the infection compared with untreated controls
C/C=C/C=C/[C@@H]1O[C@](O)([C@H](CC)C(=O)NC/C=C/C=C(\C)[C@@H](OC)[C@@H](C)[C@@H]2O[C@H](/C=C/C=C/C=C(\C)C(=O)c3c(O)ccn(C)c3=O)[C@H](O)[C@@H]2O)[C@H](O)[C@H](O[C@@H]2O[C@H](C)[C@@H](O[C@@H]3O[C@@H](C)[C@H](OC)[C@@H](O)[C@H]3OC)[C@@H](OC)[C@H]2O)C1(C)C [Efrotomycin],oral absorption and plasma half-life,[4],rapid oral absorption and prolonged plasma half-life
COc1ccc(C[C@H]2NC[C@H](O)[C@H]2OC(C)=O)cc1 [anisomycin],"puromycin-shift of the hybridization signal, cytosolic rRNA",[5],blocked the puromycin-induced shift
COc1ccc(C[C@H](N)C(=O)N[C@H]2[C@@H](O)[C@H](n3cnc4c(N(C)C)ncnc43)O[C@@H]2CO)cc1 [puromycin],"puromycin-shift of the hybridization signal, cytosolic rRNA",[5],caused a shift
same,"puromycin-shift of the hybridization signal, plastid rRNA",[6],caused a shift
kirromycin,concentration at which maximum inhibition of radiotracer incorporation was achieved,"[1]; 3H-hypoxanthine and 14C-isoleucine, cultures over a 36 hr period",100 µM
same,development of the infection in mice,P.chabaudi,less effective in vivo than Aurodox
same,mobility (Mr) of the GDP form of the EF-Tu complex,[7],increased
same,"effect on RNA, DNA and protein synthesis",eukaryotic cells,blocks RNA synthesis without affecting DNA or protein synthesis
